# Laboratory results published in ChEMBL document CHEMBL1155091, “Structure, antimicrobial activity and DNA-binding properties of the cobalt(II)-sparfloxacin complex” (2008).
# Legend:
# DNA = assay: Binding affinity to calf thymus DNA; type: nucleic-acid assay; details: Bos taurus
# Escherichia coli = assay: Antimicrobial activity against Escherichia coli; type: functional
# Pseudomonas aeruginosa = assay: Antimicrobial activity against Pseudomonas aeruginosa; type: functional
# Staphylococcus aureus = assay: Antimicrobial activity against Staphylococcus aureus; type: functional
compound,measurement,setting,value
C[C@@H]1CN(c2c(F)c(N)c3c(=O)c(C(=O)O)cn(C4CC4)c3c2F)C[C@H](C)N1 [SPARFLOXACIN],Kb,DNA,17100 M⁻¹
same,MIC,Escherichia coli,8 mg/L
same,MIC,Pseudomonas aeruginosa,0.25 mg/L
same,MIC,Staphylococcus aureus,0.5 mg/L
